What all share (assay type): cell-based
Assay [1] relates to human melanoma cells Mewo (with wild-type B-Raf). The experiment in a line: In vitro cell proliferation assay, Mewo. To be noted: 72 hours treatment, cell number by ATP monitoring system. As for the experimental part:
(§1) In Vitro Cell Proliferation Assay Exponentially growing human melanoma cells A375 (with a mutated B-RAF) and human melanoma cells Mewo (with wild-type B-Raf) were seeded and incubated at 37° C. in a humidified 5% CO2 atmosphere. After 24 hours, scalar doses of the compound were added to the medium and cells oncubated for 72 hours. At the end of treatment, cells were washed and counted. Cell number was determined by a cellular adenosine triphosphate monitoring system. Cell proliferation was compared to control cells and the concentration inhibiting cell growth by 50% was calculated. p-MAPK (T202/Y204) ArrayScan Assay

Assay [2] relates to human melanoma cells A375 (with a mutated B-RAF). The experiment in a line: In vitro cell proliferation assay, A375. Conditions: A-375, 72 hours treatment, cell number by ATP monitoring system. As for the experimental part: as §1
The subject of assay [3] is p-MAPK (T202/Y204) in A375 human melanoma cells, having a mutated B-RAF. The experiment in a line: p-MAPK (T202/Y204) ArrayScan assay. Conditions: A-375, A375 cells treated 1.5 or 2 hours, cytoplasmatic p-MAPK fluorescence intensity, read-out: Array Scan A375 IC50. As for the experimental part:
A375 human melanoma cells, having a mutated B-RAF, are seeded in 384-well poly-lysine coated plates (Matrix) at a density of 1000 cells/well with appropriate medium supplemented with 10% FCS and incubated for 16-24 hours. Cells are treated for 1.5 or 2 hours with increasing doses of compounds (starting dose 10 μM, dilution factor 2.5). At the end of the treatment cells are fixed with p-formaldehyde 3.7% for 15-30 min, then washed twice with D-PBS (80 µl/well) and permeabilized with D-PBS containing 0.1% Triton X-100 and 1% BSA (Sigma-Aldrich) for 15 minutes at room temperature (staining solution). Anti-phospho-MAPK (T202/Y204) monoclonal antibody E10 (Cell Signaling, cat. #9106) diluted 1:100 is added in staining solution and incubated for 1 hour at 37° C. After removal of the primary antibody solution, the anti-mouse Cy™2-conjugated (Green) secondary antibody (Amersham) diluted 1:500 in staining solution containing 2 μg/ml DAPI is added. The plate is incubated for 1 hour at 37° C., washed twice and then red with Cellomics' ArrayScan VTI (4 fields/well, CytoNucTrans algorithm).
The parameter “MEAN_RingAvgIntenCh2”, which measures the mean cytoplasmatic fluorescence intensity associated to p-MAPK staining, is reported as the final result.

These results are taken from US8969366B2, “Substituted pyrimidinylpyrrolopyridinone derivatives, process for their preparation and their use as kinase inhibitors” (Nerviano Medical Sciences S.R.L., priority 2009, dated 2015).

A word on the IC50: it is the concentration at which inhibition is half-maximal.

Structures can show the parent of a compound that is named as a salt. Bounds are passed on as bounds.

As for `Cn1c(-c2nc(N)ncc2C#Cc2cccc(O)c2)cc2c1CCNC2=O` [compound 2, 2-[2-Amino-5-(3-hydroxy-phenylethynyl)-pyrimidin-4-yl]-1-methyl-1,5,6,7-tetrahydro-pyrrolo[3,2-c]pyridin-4-one], the half-inhibitory concentration (IC50) is 7910 nM in assay [1], 6090 nM in assay [2] and above 10000 nM in assay [3].

Take `Cn1c2c(c(-c3cccc(NC(=O)Nc4ccc(C(F)(F)F)cc4)c3)c1-c1ccnc(N)n1)C(=O)NCC2` [compound 1, 1-{3-[2-(2-Amino-pyrimidin-4-yl)-1-methyl-4-oxo-4,5,6,7-tetrahydro-1H-pyrrolo-[3,2-c]pyridin-3-yl]-phenyl}-3-(4-trifluoromethyl-phenyl)-urea]: the figures for the IC50 in assay [1], in assay [2] and in assay [3] were above 10000 nM, 8220 nM and 5600 nM, respectively.

On to `Nc1ncc(C#Cc2cccc(O)c2)c(-c2cc3c(n2CCF)CCNC3=O)n1` [compound 3, 2-[2-Amino-5-(3-hydroxy-phenylethynyl)-pyrimidin-4-yl]-1-(2-fluoro-ethyl)-1,5,6,7-tetrahydro-pyrrolo[3,2-c]pyridin-4-one], for which the half-maximal inhibitory concentration (IC50) in assay [1] turned out to be 4750 nM; in assay [2] it was 6460 nM; in assay [3] it was 710 nM.

For `Cn1c(-c2ccnc(NC(=O)c3cccs3)n2)cc2c1CCNC2=O` [compound 11, Thiophene-2-carboxylic acid [4-(1-methyl-4-oxo-4,5,6,7-tetrahydro-1H-pyrrolo[3,2-c]pyridin-2-yl)-pyrimidin-2-yl]-amide], the concentration for half-maximal inhibition (IC50) in assay [1] came to 2420 nM; in assay [2], 1700 nM; in assay [3], 2910 nM.

Take `Cn1c(-c2ccnc(NCc3cc(Br)cs3)n2)cc2c1CCNC2=O` [compound 7, 2-{2-[(4-Bromo-thiophen-2-ylmethyl)-amino]-pyrimidin-4-yl}-1-methyl-1,5,6,7-tetrahydro-pyrrolo[3,2-c]pyridin-4-one hydrochloride]: the IC50 stood at 9760 nM in assay [1], 2910 nM in assay [2] and 2140 nM in assay [3].

For `Cn1c(-c2ccnc(NC(=O)c3cc(Br)cs3)n2)cc2c1CCNC2=O` [compound 4, 4-Bromo-thiophene-2-carboxylic acid[4-(1-methyl-4-oxo-4,5,6,7-tetrahydro-1H-pyrrolo[3,2-c]pyridin-2-yl)-pyrimidin-2-yl]-amide], the half-maximal inhibitory concentration (IC50) was 2450 nM in assay [1], 490 nM in assay [2] and 460 nM in assay [3].

Consider `Cn1c(-c2ccnc(NC(=O)c3ccsc3)n2)cc2c1CCNC2=O` [compound 12, Thiophene-3-carboxylic acid [4-(1-methyl-4-oxo-4,5,6,7-tetrahydro-1H-pyrrolo-[3,2-c]pyridin-2-yl)-pyrimidin-2-yl]-amide], for which the IC50 in assay [1] came to 6410 nM; in assay [2], 2500 nM; in assay [3] it was 2380 nM.

`Cn1c(-c2ccnc(NC(=O)c3cccc(Cl)c3)n2)cc2c1CCNC2=O` [compound 10, 3-Chloro-N-[4-(1-methyl-4-oxo-4,5,6,7-tetrahydro-1H-pyrrolo[3,2-c]pyridin-2-yl)-pyrimidin-2-yl]-benzamide]: the half-inhibitory concentration (IC50) in assay [1] turned out to be 1980 nM; in assay [2], 450 nM; in assay [3], 1600 nM.

As for `Cc1csc(C(=O)Nc2nccc(-c3cc4c(n3C)CCNC4=O)n2)c1` [compound 14, 4-Methyl-thiophene-2-carboxylic acid [4-(1-methyl-4-oxo-4,5,6,7-tetrahydro-1H-pyrrolo[3,2-c]pyridin-2-yl)-pyrimidin-2-yl]-amide], the results for the IC50 in assay [1], in assay [2] and in assay [3] were 2640 nM, 770 nM and 1450 nM, respectively.

For the molecule `Cn1c(-c2ccnc(C#Cc3cccc(Cl)c3)n2)cc2c1CCNC2=O` [compound 8, 2-[2-(3-Chloro-phenylethynyl)-pyrimidin-4-yl]-1-methyl-1,5,6,7-tetrahydro-pyrrolo[3,2-c]pyridin-4-one], the results for the concentration for half-maximal inhibition (IC50) in assay [1], in assay [2] and in assay [3] were 820 nM, 210 nM and 930 nM, respectively.

For the molecule `Cn1c(-c2ccnc(/C=C/c3cccc(Cl)c3)n2)cc2c1CCNC2=O` [compound 9, 2-{2-[(E)-2-(3-Chloro-phenyl)-vinyl]-pyrimidin-4-yl}-1-methyl-1,5,6,7-tetrahydro-pyrrolo[3,2-c]pyridin-4-one], the results for the IC50 in assay [1], in assay [2] and in assay [3] were 1220 nM, 370 nM and 400 nM, respectively.

As for `Cn1c(-c2ccnc(NCc3cccc(Cl)c3)n2)cc2c1CCNC2=O` [compound 6, 2-[2-(3-Chloro-benzylamino)-pyrimidin-4-yl]-1-methyl-1,5,6,7-tetrahydro-pyrrolo[3,2-c]pyridin-4-one hydrochloride], the 50% inhibitory concentration (IC50) in assay [1] came to 5790 nM; in assay [2], 1760 nM; in assay [3], 2110 nM.
